The results in this text go back to patent US20250302799A1, “PHARMACEUTICAL COMPOSITION CONTAINING FRAXETIN FOR PREVENTION OR TREATMENT OF ENDOMETRIOSIS” (Research & Business Foundation Sungkyunkwan University, priority 2024, published 2025).

Holding throughout (assay type): cell-based, human
Data set [1] has as its system End1/E6E7 cells. Description: Western blot analysis of protein expression and phosphorylation. As to the method: To analyze protein expression related to the development of endometriosis following fraxetin treatment, the inventors conducted western blot analysis.
Briefly, endometrial cells were treated with fraxetin in a dose-dependent manner or in combination with signaling pathway inhibitors. Total proteins were extracted from the treated cells, and protein quantification was performed using the Bradford protein assay (Bio-Rad, Hercules, CA, USA). The extracted proteins were then denatured at 95° C. for 5 minutes and subjected to electrophoresis on a 10% SDS/PAGE gel before being transferred to a nitrocellulose membrane. The membrane was subsequently incubated with primary and secondary antibodies, and target protein expression was analyzed using chemiluminescence detection reagents (Supersignal West Pico, Pierce, Rockford, IL, USA) with the ChemiDoc EQ system and Quantity One software (Bio-Rad).
(In western blotting, separated proteins are transferred to a membrane and probed.)

For data set [2], the system named is End1/E6E7 cells. The experiment in a line: Cell viability with signaling pathway inhibitors alone or combined with fraxetin. Conditions: wortmannin 1 μM, U0126 20 μM. As to the method: (§1) The AKT inhibitor wortmannin (1 μM), ERK1/2 inhibitor U0126 (20 μM), and JNK inhibitor SP600125 (20 μM) were used.
Data set [3] deals with VK2/E6E7 cells. Described as above. To be noted: wortmannin 1 μM, U0126 20 μM. As to the method: as §1
For data set [4], the system named is End1/E6E7 cells. The experiment in a line: BrdU cell proliferation assay. To be noted: End1/E6E7, 48 hours. As to the method:
(§2) To examine the effects of fraxetin on cell proliferation, the inventors performed a BrdU cell proliferation assay.
(§3) First, 5×10^3 cells of VK2/E6E7, End1/E6E7, and T-HESC were each distributed in 100 μL of medium in 96-well plates.
(§4) Fraxetin was then administered in a dose-dependent manner (0μM, 5 μM, 10 μM, 20 uM, 50 μM, 100 uM) and cultured for 48 hours, followed by the BrdU assay using a BrdU kit (Cat No: 1167229001, Roche) according to the manufacturer's instructions.
(§5) After 48 hours of incubation, 10 μM BrdU (Bromodeoxyuridine) was added to each well and incubated at 37° C. in a 5% CO2 incubator for 2 hours. The cells were then fixed, reacted with anti-BrdU-POD solution at room temperature for 90 minutes, and washed three times. Finally, 100 μL of 3, 3′, 5, 5′-tetramethylbenzidine substrate was added, and absorbance was measured at wavelengths of 370 nm and 492 nm to analyze cell proliferation.

For data set [5], the system named is VK2/E6E7 cells. Description: BrdU cell proliferation assay. To be noted: VK2/E6E7, 48 hours. As to the method:
as §2, §3, §4, §5

For data set [6], the system named is End1/E6E7 cells. Description: Mitochondrial membrane potential by JC-1 staining. To be noted: End1/E6E7, with tiRNA^HisGTG inhibitor. As to the method: To examine changes in mitochondrial membrane potential (MMP) in endometrial cells induced by fraxetin, the inventors used a mitochondria staining kit (Cat no: CS0390, Sigma-Aldrich) to measure MMP.
In brief, End1/E6E7 and […] endometrial cell lines were cultured in 6-well plates, treated with fraxetin in a dose-dependent manner (0 μM, 5 μM, 10 μM, 20 μM, 50 μM, 100 μM), and incubated at 37° C. in a 5% CO2 incubator for 48 hours. Afterward, the cells were detached using trypsin, centrifuged to obtain cell pellets, resuspended in JC-1 staining solution, and incubated at 37° C. in a 5% CO2 incubator for 20 minutes. The stained cells were centrifuged again, washed with 1X JC-1 staining buffer, and analyzed using flow cytometry to assess changes in mitochondrial membrane potential.

The subject of data set [7] is VK2/E6E7 cells. Description: Mitochondrial membrane potential by JC-1 staining. Conditions: VK2/E6E7, with tiRNA^HisGTG inhibitor.
Data set [8] has as its system End1/E6E7 cells. The experiment in a line: Apoptosis by Annexin V and propidium iodide staining. Conditions: End1/E6E7, with tiRNA^HisGTG inhibitor. As for the experimental part: (§6) To assess the apoptosis-inducing effect of fraxetin in endometrial cells, the inventors used a FITC Annexin V Apoptosis Detection Kit I (BD Sciences).
(§7) First, VK2/E6E7 and End1/E6E7 cells were cultured in 6-well plates, treated with fraxetin in a dose-dependent manner (0 μM, […], 10 μM, 20 µM, 50 μM, 100 μM), and incubated for 48 hours at 37° C. in a 5% CO2 incubator. The cells were then detached using trypsin, washed with PBS, and mixed slowly with 1 mL of 1X binding buffer. After centrifugation, the cell pellet was resuspended in 200 μL of 1X binding buffer. The suspension (100 μL) was transferred to a 1.5 mL brown tube, and 5 μL of Annexin V and PI (propidium iodide) were added, followed by staining at room temperature for 15 minutes. After adding 400 μL of 1X binding buffer, the stained solution was transferred to a 5 mL FACS tube, and the number of apoptotic cells was measured by analyzing fluorescence intensity using flow cytometry.

Data set [9] deals with VK2/E6E7 cells. The description is as above. Conditions: VK2/E6E7, with tiRNA^HisGTG inhibitor. As for the experimental part: as §6, §7
Data set [10] has as its system End1/E6E7 cells. The experiment in a line: tiRNA expression by real-time PCR. Conditions: End1/E6E7, inhibitor 40 nM transfected. As for the experimental part:
(§8) To confirm the expression of tiRNA (tRNA-derived stress-induced RNAs) associated with the development of endometriosis, the inventors conducted real-time PCR.
(§9) First, information on candidate tiRNA sequences and mature tRNA sources was obtained from MINTbase (https://cm.jefferson.edu/MINTbase/). miRNA CDNA synthesis was performed using a cDNA kit (Agilent Technologies) to confirm tiRNA expression, with U6 snRNA used for normalization. For transfection of the tiRNA^His GTG inhibitor (5′-AACCGAGAGUACUAACCACUAUACGAUCACCGC-3′) (40 nM), Lipofectamine 2000 was used in Opti-MEM.
On the technique in general: Quantitative PCR measures a nucleic acid by following its amplification.

Data set [11] concerns VK2/E6E7 cells. The experiment in a line: tiRNA expression by real-time PCR. To be noted: VK2/E6E7, inhibitor 40 nM transfected. As to the method:
as §8, §9

Data set [12] relates to End1/E6E7 cells. The experiment in a line: ROS generation by DCFH-DA flow cytometry. As for the experimental part:
(§10) To assess the inhibitory effect of fraxetin on ROS generation in endometrial cells, the inventors used flow cytometry to measure ROS levels. In brief, endometriosis cells were stained with DCFH-DA (final concentration 10 μM) for 30 minutes and treated with 50 μM fraxetin in experimental groups, with or without 2 mM N-acetylcysteine (NAC; Cat No. A0737, Sigma), in a 37° C. incubator. Afterward, the cells were washed with PBS, and ROS levels were detected by measuring fluorescence DCF via flow cytometry.

Data set [13] has as its system VK2/E6E7 cells. Description: ROS generation by DCFH-DA flow cytometry. As to the method:
as §10
A general note: Flow cytometry measures light scatter and fluorescence of single cells or particles in a stream.

In the case of `N#CC(=C(/N)Sc1ccccc1N)/C(C#N)=C(\N)Sc1ccccc1N` [U0126], the “S6 phosphorylation, combined with fraxetin compared to fraxetin alone” value in the data set with End1/E6E7 cells [1] (End1/E6E7, inhibitor 20 μM) is “further downregulated”. Moreover, the “cell viability, combined treatment with fraxetin compared to inhibitor alone” value in the data set on End1/E6E7 cells [2] and in the data set with VK2/E6E7 cells [3] was “marked decrease” throughout.

With `COC[C@H]1OC(=O)c2coc3c2[C@@]1(C)C1=C(C3=O)[C@@H]2CCC(=O)[C@@]2(C)C[C@H]1OC(C)=O` [wortmannin, reference compound], the JNK phosphorylation result in the data set with End1/E6E7 cells [1] (End1/E6E7, wortmannin 1 μM) was “no significant effect”.

For the molecule “tiRNA^HisGTG inhibitor: tiRNA^His GTG inhibitor (5′-AACCGAGAGUACUAACCACUAUACGAUCACCGC-3′), 40 nM, transfected with Lipofectamine 2000 (AACCGAGAGUACUAACCACUAUACGAUCACCGC; chemistry not given here) [reference compound]”, the “cell proliferation, sequential treatment with fraxetin” value in the data set with End1/E6E7 cells [4] and with VK2/E6E7 cells [5] was “decreased” throughout. In addition, the “fraxetin-induced MMP loss” value with End1/E6E7 cells [6] and with VK2/E6E7 cells [7] was “significantly mitigated” each time. The fraxetin-induced apoptosis result with End1/E6E7 cells [8] and in the data set on VK2/E6E7 cells [9] was “inhibited” throughout. For the same molecule, the “tiRNA^HisGTG mRNA expression” value with End1/E6E7 cells [10] and with VK2/E6E7 cells [11] was “decreased” in each case.

On to `CC(=O)N[C@@H](CS)C(=O)O` [NAC, N-acetylcysteine, reference compound], for which the “fraxetin-induced increase of ROS generation under co-treatment” value is reported as “mitigated” in the data set on End1/E6E7 cells [12] (End1/E6E7, 2 mM NAC) and “mitigated” with VK2/E6E7 cells [13] (VK2/E6E7, 2 mM NAC).

`C[C@]12CCC3=C4CCC(=O)C=C4CC[C@H]3[C@@H]1CC[C@@]2(O)CC#N` [dienogest, reference compound]: the “relative ROS generation” value in the data set with End1/E6E7 cells [12] (End1/E6E7, Example 7 comparison fraxetin vs dienogest) is “did not show significant changes”; with VK2/E6E7 cells [13] (VK2/E6E7, Example 7 comparison fraxetin vs dienogest), “did not show significant changes”.
